# Experimental data reported in ChEMBL document CHEMBL1151220, “Further bioactive piperidine alkaloids from the flowers and green fruits of Cassia spectabilis” (2004).
# Calls of active or inactive are those of the source. The calls are words filed in the database; no cut-off is given here.
# What was measured:
# Type in all cases: functional
# Saccharomyces cerevisiae [1] = test: DNA damaging activity against RS 321N Saccharomyces cerevisiae
# Saccharomyces cerevisiae [2] = test: DNA damaging activity against RS 188N (RAD+) Saccharomyces cerevisiae
# Saccharomyces cerevisiae [3] = test: DNA damaging activity against DNA RS 322YK ([…]) Saccharomyces cerevisiae
Compound,IC12 (Saccharomyces cerevisiae [1]) [µg/mL],Activity (Saccharomyces cerevisiae [2]),Activity (Saccharomyces cerevisiae [3]),Activity (Saccharomyces cerevisiae [1])
COC1=C(N)C(=O)c2nc(-c3nc(C(=O)O)c(C)c(-c4ccc(OC)c(OC)c4O)c3N)ccc2C1=O [STREPTONIGRIN],4,–,–,–
CC(=O)CCCCCCCCCCCC[C@H]1CC[C@@H](OC(C)=O)[C@@H](C)N1,32,–,–,–
CC(=O)CCCCCCCCCCCC[C@H]1CC[C@@H](O)[C@@H](CO)N1,–,inactive,inactive,inactive
CC(=O)CCCCCCCCCCCC[C@@H]1CC[C@@H](O)[C@@H](C)N1,–,inactive,inactive,inactive
CC(=O)CCCCCCCCCCCC[C@H]1CC[C@@H](O)[C@@H](C)N1,17,–,–,–
